Assays:
Type in all cases: in vivo
[1] = system: resistant strain of the citrus red mite; test: Test 4: effect on a resistant strain of the citrus red mite (leaf section spray, LC50); conditions: eggs on mandarin tree leaf sections sprayed, 25°C, eleven days after the treatment
Description: (§1) About 2 cm square sections of mandarin tree leaves were placed on wetted absorbent cotton. Then, 7 female adults of the citrus red mite were inoculated on each leaf section and allowed to deposit eggs. After 24 hours, the adult mites were removed, 4 ml each of various dilutions of 10% Anniverse Emulsion (Compound No.1), 0.6% Avermectin Emulsion or a mixture thereof were sprayed by means of a tower sprayer, and the leaf sections were maintained in a thermostatic chamber kept at 25°C. Eleven days after the treatment, the numbers of surviving mites, dead mites, unhatched eggs and escaping mites were examined. Thus, the survival rates at various concentrations were calculated and the LC₅₀ value (in ppm) was determined therefrom.

[2] = system: sensitive strain of the Kanzawa spider mite; test: Test 1: effect on a sensitive strain of the Kanzawa spider mite (leaf section spray, LC50); conditions: eggs on kidney bean leaf sections sprayed, 25°C, eleven days after the treatment
Description: as §1, with “kidney bean” for “mandarin tree”, “Kanzawa spider” for “citrus red”
In order to evaluate the synergistic effect of the compound of the general formula (1) and the macrolide compound, the combined toxicity index was calculated from the LC₅₀ values of the respective compounds according to the equation of Y.P. Sun et al. (J. Econ. Ent., 53(5), 887, 1960).
The equation of Y.P. Sun et al. for calculating the combined toxicity index is more fully explained below. […]

Kanzawa spider mite = test: Test 5: effect on the Kanzawa spider mite living on potted kidney bean plants (mite counts); conditions: Compound No.1 25 ppm, 51 before treatment
Description: Potted kidney bean plants in the first true leaf stage were inoculated with female adults of the Kanzawa spider mite and allowed to stand in a greenhouse for about a week. After leaves infested with Kanzawa spider mites were marked, the kidney bean plants were sprayed with a diluted fluid of 10% Anniverse Emulsion (Compound No.1), a macrolide compound (i.e., 0.6% Avermectin Emulsion or 1% Milbenock Emulsion) or a mixture thereof to such an extent that the fluid dripped from their leaves. The number of Kanzawa spider mites living on the marked leaves was counted 2, 7, 12, 16 and 27 days after the treatment.

[3] = system: second-instar larvae of the diamond-back moth; test: Test 8: effect on the diamondback moth (residual activity on sprayed potted cabbages); conditions: dead larvae 2 days after feeding
Description: Potted cabbages were sprayed with a diluted fluid of an emulsion of a compound of the general formula (1) [i.e., 10% Anniverse Emulsion (Compound No.1), 20% Trebon Emulsion (Compound No.2), an emulsion of Compound No.3, an emulsion of Compound No.4, or Shironen Emulsion (Compound No.5)], 0.6% Avermectin Emulsion or a mixture thereof to such an extent that the fluid dripped from their leaves. Subsequently, cabbage leaves were sampled at predetermined intervals and fed to second-instar larvae of the diamond-back moth. Then, the number of dead larvae was examined after 2 days from the feeding.

green peach aphid = test: Test 7: effect on the green peach aphid living on eggplants (population density); conditions: Compound No.1 25 ppm, before treatment = 100
Description: After leaves naturally infested with green peach aphids were marked, eggplants were sprayed with a diluted fluid of 10% Anniverse Emulsion (Compound No.1), 0.6% Avermectin Emulsion or a mixture thereof to such an extent that the fluid dripped from their leaves. The number of green peach aphids living on the marked leaves was counted 2, 7, 14, 21 and 28 days after the treatment, and the corrected population density index was calculated according to the equation given below. Corrected population density index =((Number of insects after treatment in treated division)/(Number of insects before treatment in treated division))/((Number of insects after treatment in untreated division)/(Number of insects before treatment in untreated division))x 100 [formula]

[4] = system: resistant strain of the Kanzawa spider mite; test: Test 3: effect on a resistant strain of the Kanzawa spider mite, Milbenock Emulsion as macrolide (LC50); conditions: 1% Milbenock Emulsion as macrolide, eleven days after the treatment
Description: A test was carried out in the same manner as in Test 1, except that, in place of 0.6% Avermectin Emulsion, 1% Milbenock Emulsion was used as the macrolide compound.

[5] = system: resistant strain of the greenhouse whitefly; test: Test 6: effect on a resistant strain of the greenhouse whitefly (eggs on leaf sections, LC50); conditions: one-day-old eggs on kidney bean leaf sections sprayed, 25°C, twelve days after the treatment
Description: About 2 cm square sections of kidney bean leaves on which one-day-old eggs of the greenhouse whitefly had been deposited were placed on wetted absorbent cotton, sprayed with 4 ml each of various dilutions of 10% Anniverse Emulsion (Compound No.1), 0.6% Avermectin Emulsion or a mixture thereof by means of a tower sprayer, and maintained in a thermostatic chamber kept at 25°C. Twelve days after the treatment, the numbers of surviving insects, dead insects, unhatched eggs and escaping insects were examined. Thus, the survival rates at various concentrations were calculated and the LC₅₀ value (in ppm) was determined therefrom.

[6] = system: resistant strain of the Kanzawa spider mite; test: Test 2: effect on a resistant strain of the Kanzawa spider mite (leaf section spray, LC50); conditions: eggs on kidney bean leaf sections sprayed, 25°C, eleven days after the treatment
Description: as §1, with “kidney bean” for “mandarin tree”, “Kanzawa spider” for “citrus red”, “No.1), 20% Trebon Emulsion (Compound No.2),” for “No.1),”
(§2) In order to evaluate the synergistic effect of each compound of the general formula (1) and the macrolide compound, the combined toxicity index was calculated from the LC₅₀ values of the respective compounds in the same manner as in Test 1.

[7] = system: resistant strain (selected by Compound No.1) of the Kanzawa spider mite; test: Test 9: effect on a resistant strain (selected by Compound No.1) of the Kanzawa spider mite (LC50); conditions: eggs on kidney bean leaf sections sprayed, 25°C, eight days after the treatment
Description: as §1, with “kidney bean” for “mandarin tree”, “Kanzawa spider” for “citrus red”, “removed,” for “removed, 4 ml each of”, “an emulsion of a compound of the general formula (1) [i.e., 20% Trebon” for “10% Anniverse”, “No.2), an emulsion of Compound No.3, an emulsion of Compound No.4, or Shironen Emulsion (Compound No.5)], 1% Milbenock” for “No.1), 0.6% Avermectin”, “Eight” for “Eleven”
as §2

[8] = compound of formula (1) alone 50 ppm, leaves sampled 2 days after treatment
[9] = compound of formula (1) alone 50 ppm, leaves sampled 7 days after treatment
[10] = compound of formula (1) alone 50 ppm, leaves sampled 14 days after treatment
[11] = compound of formula (1) alone 50 ppm, leaves sampled 21 days after treatment
[12] = compound of formula (1) alone 50 ppm, leaves sampled 28 days after treatment
[13] = compound of formula (1) alone 50 ppm, leaves sampled 35 days after treatment

SMILES	LC₅₀ value [6]	LC₅₀ value [7]	Death rate [3, 8]	Death rate [3, 9]	Death rate [3, 10]	Death rate [3, 11]	Death rate [3, 12]	Death rate [3, 13]	also measured
CC(C)(COCc1cccc(Oc2ccccc2)c1)c1ccc(OC(F)(F)Br)cc1 [Compound No.1]	11.5 ppm	–	–	–	–	–	–	–	LC₅₀ value [1]: 2000 ppm; LC₅₀ value [2]: 1.13 ppm; Number of living mites (Kanzawa spider mite; 2 days after treatment): 0; Number of living mites (Kanzawa spider mite; 7 days after treatment): 0; Number of living mites (Kanzawa spider mite; 12 days after treatment): 0; Number of living mites (Kanzawa spider mite; 16 days after treatment): 27; Number of living mites (Kanzawa spider mite; 27 days after treatment): 102; Death rate ([3]; compound of formula (1) alone 25 ppm, leaves sampled 2 days after treatment): 90%; Death rate ([3]; compound of formula (1) alone 25 ppm, leaves sampled 7 days after treatment): 10%; Death rate ([3]; compound of formula (1) alone 25 ppm, leaves sampled 14 days after treatment): 0%; Death rate ([3]; compound of formula (1) alone 25 ppm, leaves sampled 21 days after treatment): 0%; Corrected population density index (green peach aphid; 2 days after treatment): 0; Corrected population density index (green peach aphid; 7 days after treatment): 0.3; Corrected population density index (green peach aphid; 14 days after treatment): 2.5; Corrected population density index (green peach aphid; 21 days after treatment): 42.5; Corrected population density index (green peach aphid; 28 days after treatment): 96.5; LC₅₀ value [4]: 11.5 ppm; LC₅₀ value [5]: 630 ppm
CCOc1ccc(C(C)(C)COCc2cccc(Oc3ccccc3)c2)cc1 [Compound No.2]	162 ppm	375 ppm	38%	15%	25%	11%	–	–	–
CCOc1ccc(C(C)(C)CCCc2cccc(Oc3ccccc3)c2)cc1 [Compound No.3]	–	519 ppm	70%	45%	15%	40%	35%	5%	–
CCOc1ccc(C(C)(C)CCCc2ccc(F)c(Oc3ccccc3)c2)cc1 [Compound No.4]	–	94 ppm	94%	65%	60%	10%	0%	0%	–
CCOc1ccc([Si](C)(C)CCCc2ccc(F)c(Oc3ccccc3)c2)cc1 [Compound No.5]	–	1150 ppm	95%	73%	50%	15%	0%	0%	–

— patent publication EP0714604A1, “A composition having insecticidal and acaricidal properties” (MITSUI TOATSU CHEMICALS, INCORPORATED, priority 1994, dated 1996)
